Measurements published in PubChem BioAssay AID2060508 (Molecular Pharmacology Branch, DTP, NCI, 2025).

Tested on: 454973-116-R2-J3-PDC spheroids, viability, % test/control
Assay: Anticancer human tumor 454973-116-R2-J3-PDC patient-derived pancreatic carcinoma cell line growth inhibition [GQUAD]
Conditions: spheroids with HUVEC and MSC; for IC50: curve of first compound; for viability, T/C: stronger effect = lower value
How it was run: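 Viability of tumor cells grown as complex spheroids with endothelial and stromal cells, exposed to drug combinations. Top concentration at or near clinical Cmax (else 10 microM), diluted in half-log increments.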

[1] = second compound 0.0316 µM, first compound 0.0316 µM
[2] = second compound 0.0316 µM, first compound 0.1 µM
[3] = second compound 0.0316 µM, first compound 0.316 µM
[4] = second compound 0.0316 µM, first compound 1 µM
[5] = second compound 0.0316 µM, first compound 3.16 µM
[6] = second compound 0.0316 µM, first compound 10 µM
[7] = second compound 0.1 µM, first compound 0.0316 µM
[8] = second compound 0.1 µM, first compound 0.1 µM
[9] = second compound 0.1 µM, first compound 0.316 µM
[10] = second compound 0.1 µM, first compound 1 µM
[11] = second compound 0.1 µM, first compound 3.16 µM
[12] = second compound 0.1 µM, first compound 10 µM
[13] = second compound 0.316 µM, first compound 0.0316 µM
[14] = second compound 0.316 µM, first compound 0.1 µM
[15] = second compound 0.316 µM, first compound 0.316 µM
[16] = second compound 0.316 µM, first compound 1 µM
[17] = second compound 0.316 µM, first compound 3.16 µM
[18] = second compound 0.316 µM, first compound 10 µM
[19] = second compound 1 µM, first compound 0.0316 µM
[20] = second compound 1 µM, first compound 0.1 µM
[21] = second compound 1 µM, first compound 0.316 µM
[22] = second compound 1 µM, first compound 1 µM
[23] = second compound 1 µM, first compound 3.16 µM
[24] = second compound 1 µM, first compound 10 µM
[25] = second compound 3.16 µM, first compound 0.0316 µM
[26] = second compound 3.16 µM, first compound 0.1 µM
[27] = second compound 3.16 µM, first compound 0.316 µM
[28] = second compound 3.16 µM, first compound 1 µM
[29] = second compound 3.16 µM, first compound 3.16 µM
[30] = second compound 3.16 µM, first compound 10 µM
[31] = second compound 10 µM, first compound 0.0316 µM
[32] = second compound 10 µM, first compound 0.1 µM
[33] = second compound 10 µM, first compound 0.316 µM
[34] = second compound 10 µM, first compound 1 µM
[35] = second compound 10 µM, first compound 3.16 µM
[36] = second compound 10 µM, first compound 10 µM
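Note: spheroids exposed to compounds for seven days.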
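Throughout, for viability, T/C: 100% = DMSO vehicle control viability.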

Structure (SMILES): CC1COCCN1c1cc(C2(O)CC3CCC(C2)O3)c2cnn(-c3ccn[nH]3)c2n1 (stereo not drawn) + Cc1[nH]c2ccc(F)cc2c1-c1nc2c3cccnc3c3ncccc3c2[nH]1
- IC50 (second compound 0.0316 µM): 155 nM
- IC50 (second compound 0.1 µM): 141 nM
- IC50 (second compound 0.316 µM): 163 nM
- IC50 (second compound 1 µM): 140 nM
- IC50 (second compound 3.16 µM): 143 nM
- IC50 (second compound 10 µM): 115 nM
- viability, T/C [1]: 95.9%
- viability, T/C [2]: 62.1%
- viability, T/C [3]: 29.9%
- viability, T/C [4]: 21.7%
- viability, T/C [5]: 24.1%
- viability, T/C [6]: 12.3%
- viability, T/C [7]: 87%
- viability, T/C [8]: 58.9%
- viability, T/C [9]: 28.9%
- viability, T/C [10]: 21.3%
- viability, T/C [11]: 21.8%
- viability, T/C [12]: 10.4%
- viability, T/C [13]: 91.6%
- viability, T/C [14]: 66.4%
- viability, T/C [15]: 27.7%
- viability, T/C [16]: 20%
- viability, T/C [17]: 21.6%
- viability, T/C [18]: 13.5%
- viability, T/C [19]: 93.5%
- viability, T/C [20]: 58.1%
- viability, T/C [21]: 30.6%
- viability, T/C [22]: 19.9%
- viability, T/C [23]: 21.8%
- viability, T/C [24]: 13.2%
- viability, T/C [25]: 88.5%
- viability, T/C [26]: 58.3%
- viability, T/C [27]: 31.7%
- viability, T/C [28]: 21.8%
- viability, T/C [29]: 21.6%
- viability, T/C [30]: 12.6%
- viability, T/C [31]: 79.5%
- viability, T/C [32]: 53.6%
- viability, T/C [33]: 26.2%
- viability, T/C [34]: 22.4%
- viability, T/C [35]: 20.3%
- viability, T/C [36]: 12.6%

Structure (SMILES): COc1cc(C2c3cc4c(cc3C(OC3OC5COC(C)OC5C(O)C3O)C3COC(=O)C23)OCO4)cc(OC)c1O (stereo not drawn) + CN(C)c1ccc(Nc2c3ccc(NC(=O)CCN4CCCC4)cc3nc3cc(NC(=O)CCN4CCCC4)ccc23)cc1
- IC50 (second compound 0.0316 µM): 1240 nM
- IC50 (second compound 0.1 µM): 1270 nM
- IC50 (second compound 0.316 µM): 1090 nM
- IC50 (second compound 1 µM): 790 nM
- IC50 (second compound 3.16 µM): 749 nM
- IC50 (second compound 10 µM): 821 nM
- viability, T/C [1]: 102%
- viability, T/C [2]: 95.6%
- viability, T/C [3]: 87.9%
- viability, T/C [4]: 55.1%
- viability, T/C [5]: 25.9%
- viability, T/C [6]: 15%
- viability, T/C [7]: 106%
- viability, T/C [8]: 98.7%
- viability, T/C [9]: 89.1%
- viability, T/C [10]: 58.8%
- viability, T/C [11]: 21.3%
- viability, T/C [12]: 15.3%
- viability, T/C [13]: 97.3%
- viability, T/C [14]: 98.7%
- viability, T/C [15]: 78.8%
- viability, T/C [16]: 51.8%
- viability, T/C [17]: 27.2%
- viability, T/C [18]: 14.3%
- viability, T/C [19]: 105%
- viability, T/C [20]: 89.1%
- viability, T/C [21]: 78%
- viability, T/C [22]: 39.4%
- viability, T/C [23]: 28.7%
- viability, T/C [24]: 15.7%
- viability, T/C [25]: 89.2%
- viability, T/C [26]: 88.7%
- viability, T/C [27]: 80.5%
- viability, T/C [28]: 38.5%
- viability, T/C [29]: 31.6%
- viability, T/C [30]: 16.3%
- viability, T/C [31]: 79.2%
- viability, T/C [32]: 71.3%
- viability, T/C [33]: 66.2%
- viability, T/C [34]: 45.5%
- viability, T/C [35]: 31.8%
- viability, T/C [36]: 20.9%

Structure (SMILES): C=CC(=O)N1CCN(c2nc(=O)n(-c3c(C)ccnc3C(C)C)c3nc(-c4c(O)cccc4F)c(F)cc23)C(C)C1 (stereo not drawn) + Cc1[nH]c2ccc(F)cc2c1-c1nc2c3cccnc3c3ncccc3c2[nH]1
- IC50 (second compound 0.0316 µM): > 10000 nM
- IC50 (second compound 0.1 µM): > 10000 nM
- IC50 (second compound 0.316 µM): > 10000 nM
- IC50 (second compound 1 µM): > 10000 nM
- IC50 (second compound 3.16 µM): > 10000 nM
- IC50 (second compound 10 µM): > 10000 nM
- viability, T/C [1]: 110%
- viability, T/C [2]: 107%
- viability, T/C [3]: 115%
- viability, T/C [4]: 109%
- viability, T/C [5]: 113%
- viability, T/C [6]: 114%
- viability, T/C [7]: 100%
- viability, T/C [8]: 102%
- viability, T/C [9]: 114%
- viability, T/C [10]: 108%
- viability, T/C [11]: 125%
- viability, T/C [12]: 109%
- viability, T/C [13]: 103%
- viability, T/C [14]: 111%
- viability, T/C [15]: 107%
- viability, T/C [16]: 100%
- viability, T/C [17]: 119%
- viability, T/C [18]: 113%
- viability, T/C [19]: 107%
- viability, T/C [20]: 97%
- viability, T/C [21]: 112%
- viability, T/C [22]: 103%
- viability, T/C [23]: 114%
- viability, T/C [24]: 123%
- viability, T/C [25]: 96.2%
- viability, T/C [26]: 95.3%
- viability, T/C [27]: 96.4%
- viability, T/C [28]: 111%
- viability, T/C [29]: 113%
- viability, T/C [30]: 107%
- viability, T/C [31]: 93.8%
- viability, T/C [32]: 81.8%
- viability, T/C [33]: 104%
- viability, T/C [34]: 92.8%
- viability, T/C [35]: 89.6%
- viability, T/C [36]: 83.6%

Structure (SMILES): CCCS(=O)(=O)Nc1ccc(F)c(C(=O)c2c[nH]c3ncc(-c4ccc(Cl)cc4)cc23)c1F + Cc1[nH]c2ccc(F)cc2c1-c1nc2c3cccnc3c3ncccc3c2[nH]1
- IC50 (second compound 0.0316 µM): 5970 nM
- IC50 (second compound 0.1 µM): 5650 nM
- IC50 (second compound 0.316 µM): 6270 nM
- IC50 (second compound 1 µM): 6300 nM
- IC50 (second compound 3.16 µM): 6450 nM
- IC50 (second compound 10 µM): 6400 nM
- viability, T/C [1]: 114%
- viability, T/C [2]: 117%
- viability, T/C [3]: 127%
- viability, T/C [4]: 116%
- viability, T/C [5]: 101%
- viability, T/C [6]: 8.25%
- viability, T/C [7]: 112%
- viability, T/C [8]: 118%
- viability, T/C [9]: 113%
- viability, T/C [10]: 118%
- viability, T/C [11]: 92.7%
- viability, T/C [12]: 8.04%
- viability, T/C [13]: 112%
- viability, T/C [14]: 107%
- viability, T/C [15]: 102%
- viability, T/C [16]: 113%
- viability, T/C [17]: 113%
- viability, T/C [18]: 9.5%
- viability, T/C [19]: 104%
- viability, T/C [20]: 102%
- viability, T/C [21]: 114%
- viability, T/C [22]: 128%
- viability, T/C [23]: 115%
- viability, T/C [24]: 8.32%
- viability, T/C [25]: 109%
- viability, T/C [26]: 115%
- viability, T/C [27]: 114%
- viability, T/C [28]: 98.6%
- viability, T/C [29]: 112%
- viability, T/C [30]: 13.3%
- viability, T/C [31]: 107%
- viability, T/C [32]: 101%
- viability, T/C [33]: 116%
- viability, T/C [34]: 110%
- viability, T/C [35]: 106%
- viability, T/C [36]: 14.4%
